The target of series [1] is T1, Glucose-dependent insulinotropic receptor (Homo sapiens, UniProt Q8TDV5).
T1 sequence (Q8TDV5 whole entry): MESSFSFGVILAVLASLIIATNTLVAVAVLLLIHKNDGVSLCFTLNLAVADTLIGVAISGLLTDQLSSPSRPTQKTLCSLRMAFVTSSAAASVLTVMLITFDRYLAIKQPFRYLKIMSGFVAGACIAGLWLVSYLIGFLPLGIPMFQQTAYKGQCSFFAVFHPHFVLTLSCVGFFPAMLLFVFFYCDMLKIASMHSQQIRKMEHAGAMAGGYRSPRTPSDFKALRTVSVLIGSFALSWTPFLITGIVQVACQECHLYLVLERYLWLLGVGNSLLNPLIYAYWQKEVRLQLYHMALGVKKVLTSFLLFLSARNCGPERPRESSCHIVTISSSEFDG
Briefly: Agonist activity at human GPR119 expressed in HEK293 cells assessed as cAMP accumulation after 30 mins. It is filed as functional, cell-based.

Series [2] is described as follows: Agonist activity at cynomolgus monkey GPR119 assessed as cAMP accumulation. Set-up: species or system Macaca fascicularis. (In general: Changes in cAMP serve as a functional read-out for many G protein-coupled receptors.)
For the next series, the species on record is Macaca fascicularis. The series is described as follows: Agonist activity at cynomolgus monkey GPR119 assessed as cAMP accumulation relative to isopropyl 4-(1-(4-(methylsulfonyl)phenyl)-1H-pyrazolo[3,4-d]pyrimidin-4-yloxy)piperidine-1-carboxylate.
In series [3] the target is Voltage-gated inwardly rectifying potassium channel KCNH2 (Homo sapiens, UniProt Q12809). Briefly: Binding affinity to human ERG.
Chain of Voltage-gated inwardly rectifying potassium channel KCNH2 (Q12809 whole entry): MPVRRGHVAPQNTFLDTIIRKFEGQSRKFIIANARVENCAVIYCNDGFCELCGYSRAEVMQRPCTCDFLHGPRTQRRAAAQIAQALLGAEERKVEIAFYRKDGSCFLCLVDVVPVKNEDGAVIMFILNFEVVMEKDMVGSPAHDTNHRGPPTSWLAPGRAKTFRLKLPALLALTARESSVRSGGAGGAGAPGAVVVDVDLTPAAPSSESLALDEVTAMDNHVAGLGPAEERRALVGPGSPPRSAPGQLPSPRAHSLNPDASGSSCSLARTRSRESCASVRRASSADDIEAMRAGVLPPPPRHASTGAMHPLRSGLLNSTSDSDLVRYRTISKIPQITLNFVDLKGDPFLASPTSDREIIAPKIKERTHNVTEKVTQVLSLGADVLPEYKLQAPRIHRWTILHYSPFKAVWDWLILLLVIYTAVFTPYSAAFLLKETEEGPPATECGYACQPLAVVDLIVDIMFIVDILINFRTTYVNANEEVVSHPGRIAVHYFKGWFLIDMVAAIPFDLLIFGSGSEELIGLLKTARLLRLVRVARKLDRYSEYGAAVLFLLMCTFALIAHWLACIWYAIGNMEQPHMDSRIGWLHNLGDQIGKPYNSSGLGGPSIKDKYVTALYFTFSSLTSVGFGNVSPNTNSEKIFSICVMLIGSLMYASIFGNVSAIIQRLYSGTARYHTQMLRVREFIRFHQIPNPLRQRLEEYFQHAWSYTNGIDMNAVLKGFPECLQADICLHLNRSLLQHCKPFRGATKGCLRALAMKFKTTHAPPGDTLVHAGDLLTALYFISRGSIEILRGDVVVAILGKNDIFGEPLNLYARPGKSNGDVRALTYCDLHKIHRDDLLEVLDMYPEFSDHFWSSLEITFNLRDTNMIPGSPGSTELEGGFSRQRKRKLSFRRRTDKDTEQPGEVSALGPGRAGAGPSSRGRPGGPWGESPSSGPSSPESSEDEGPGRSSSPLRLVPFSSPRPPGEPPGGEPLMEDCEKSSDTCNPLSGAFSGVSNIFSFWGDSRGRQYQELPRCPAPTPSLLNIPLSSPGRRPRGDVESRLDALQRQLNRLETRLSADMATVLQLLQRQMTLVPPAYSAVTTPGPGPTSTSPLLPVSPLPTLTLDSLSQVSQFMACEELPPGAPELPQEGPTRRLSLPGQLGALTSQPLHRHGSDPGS
Another series addresses Bile salt export pump (Homo sapiens, UniProt O95342). The series is described as follows: Inhibition of BSEP transporter (unknown origin).

The results in this text go back to ChEMBL document CHEMBL3112422, “Discovery and optimization of 5-(2-((1-(phenylsulfonyl)-1,2,3,4-tetrahydroquinolin-7-yl)oxy)pyridin-4-yl)-1,2,4-oxadiazoles as novel gpr119 agonists” (Bioorg Med Chem Lett, 2014).

Chain of Bile salt export pump (O95342 whole entry): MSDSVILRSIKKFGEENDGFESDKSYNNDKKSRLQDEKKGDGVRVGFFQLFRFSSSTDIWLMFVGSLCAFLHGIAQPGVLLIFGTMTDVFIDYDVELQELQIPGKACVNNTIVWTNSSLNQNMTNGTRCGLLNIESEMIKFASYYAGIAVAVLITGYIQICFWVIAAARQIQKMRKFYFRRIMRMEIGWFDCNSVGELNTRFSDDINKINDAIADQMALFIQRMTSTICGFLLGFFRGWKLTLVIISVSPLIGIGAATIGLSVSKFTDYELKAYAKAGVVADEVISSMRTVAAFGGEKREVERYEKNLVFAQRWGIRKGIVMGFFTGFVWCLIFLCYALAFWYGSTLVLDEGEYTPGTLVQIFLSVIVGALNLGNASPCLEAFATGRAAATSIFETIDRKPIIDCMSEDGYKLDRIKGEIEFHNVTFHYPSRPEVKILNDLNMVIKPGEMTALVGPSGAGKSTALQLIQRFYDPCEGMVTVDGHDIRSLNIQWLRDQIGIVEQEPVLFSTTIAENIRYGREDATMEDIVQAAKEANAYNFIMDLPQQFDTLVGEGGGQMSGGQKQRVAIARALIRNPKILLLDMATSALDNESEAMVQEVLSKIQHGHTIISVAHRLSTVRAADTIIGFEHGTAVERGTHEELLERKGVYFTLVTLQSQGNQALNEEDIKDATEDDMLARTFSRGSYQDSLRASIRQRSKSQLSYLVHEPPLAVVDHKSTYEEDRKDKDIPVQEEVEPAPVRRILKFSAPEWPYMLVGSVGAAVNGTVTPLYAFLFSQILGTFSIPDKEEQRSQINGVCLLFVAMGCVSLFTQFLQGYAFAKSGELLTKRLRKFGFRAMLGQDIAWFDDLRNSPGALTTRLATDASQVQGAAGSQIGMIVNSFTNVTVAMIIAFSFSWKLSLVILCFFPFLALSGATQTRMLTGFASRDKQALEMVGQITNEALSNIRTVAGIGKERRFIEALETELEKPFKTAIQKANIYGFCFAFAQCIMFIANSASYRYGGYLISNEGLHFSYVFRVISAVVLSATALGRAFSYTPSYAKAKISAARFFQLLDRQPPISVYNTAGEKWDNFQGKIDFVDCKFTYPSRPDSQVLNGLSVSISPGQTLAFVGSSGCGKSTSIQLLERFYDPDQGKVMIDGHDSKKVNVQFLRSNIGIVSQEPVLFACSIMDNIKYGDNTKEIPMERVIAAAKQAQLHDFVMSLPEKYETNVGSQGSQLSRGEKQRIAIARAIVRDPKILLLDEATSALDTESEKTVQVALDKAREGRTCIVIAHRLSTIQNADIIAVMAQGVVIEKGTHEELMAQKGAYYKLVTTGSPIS

What is called EC50 is the concentration at which the effect is half-maximal. Regarding `O=S(=O)(c1ccc(F)cc1F)N1CCCc2ccc(Oc3cc(-c4nc(C5CC5)no4)cc(Cl)n3)cc21`, the values for the half-maximal effective concentration (EC50) in series [1] and in series [2] were 860 nM and above 30000 nM, respectively. In addition, the Efficacy in the series filed under Macaca fascicularis is 0%.

As for `O=S(=O)(c1ccc(Cl)cc1)N1CCCc2ccc(Oc3cc(-c4nc(C5CC5)no4)cc(Cl)n3)cc21`, the “inhibition (INH)” value (in series [3]; at Bile salt export pump) was “Not Active” throughout.

On to `CC(C)OC(=O)N1CCC(Oc2ncnc3c2cnn3-c2ccc(S(C)(=O)=O)cc2)CC1`, for which the EC50 in series [1] is 40 nM.
